According to patent publication US5561131A, “Defaunation method” (Mallinckrodt Veterinary, Inc., priority 1991, dated 1996):

What was measured:
protozoa [1] = assay: Sheep test: protozoal numbers; format: in vivo
Method: (§1) In this trial the effect of defaunation by compounds 27, 30 and 37 (see Table 1) after 1 and 3 weeks were examined using penned sheep.
(§2) The compounds were each administered to two sheep as a single dose at 167 mg/kg body weight. Compositions containing each compound were prepared according to the method of Example 1. Sheep were penned and fed 1000 g/day of a chaffed oaten hay and Lucerne mixture (90/10). Protozoal and bacterial viabilities were monitored along with the feed intake of the sheep according to the methods taught in Examples 2, 3 and 7.

rumen ciliate protozoa [2] = assay: In vitro activity of defaunation compounds against rumen ciliate protozoa; format: cell-based; conditions: 39° C., anaerobic, 3 hours, tested at 50, 150, 250 and 500 ppm
Method: Compounds of Table 1 were tested for their toxicity against rumen ciliate protozoa by firstly isolating protozoa from rumen liquor collected from faunated animals. The rumen liquor was then centrifuged at 500 g for five minutes and the supernatant discarded. The protozoal-rich sediment was then reconstituted in McDougal's artificial saliva. Residual bacteria were suppressed by using a combination of two antibiotics at low concentration. Nitrogen and energy substrate was optimized for the protozoal preparation. At all times the protozoal preparation was maintained at 39° C. and kept anaerobic.
Sixty milligrams of each the compounds of Table 1 were dissolved in 1.2 ml of dimethyl sulphoxide and dispersed in triplicate to achieve a final concentration of 50, 150, 250 and 500 ppm. Ten milliliters of protozoal preparation was then added to each tube. After every second compound, control tubes were included which contained everything except for compound. The tubes, to which a 5 ml glass syringe was attached, were then incubated for 3 hours in a water bath at 39° C. The production of gas causes the syringe plunger to be displaced.
At the end of the incubation period, the volume of gas produced was recorded and the viability of the protozoa assessed visually using a microscope. The toxicity of the compounds to protozoa was assessed from both the reduction in gas produced relative to the control and by direct observation of the protozoa for movement of cilia.

protozoa [3] = assay: Wool growth trial: protozoal number; format: in vivo; conditions: sheep, defaunated period, 167 mg/kg
Method: (§3) Seven sheep each were defaunated using a dose rate of 167 mg/kg. Compounds were administered by first mixing with 20 ml of ethanol and then with 200 ml of centrifuged rumen liquor. This solution was then administered via a flexible stomach tube directly into the rumen. The sheep were fed with a ration of 90% oaten chaff and 10% Lucerne chaff at a rate of 1000 g per day. The sheep were maintained in a defaunated state by their isolation from faunated sheep to prevent the possibility of refaunation. The sheep were allowed to adjust for 3 weeks after administering the compound before any wool growth measurements were taken.
(§4) At the start of the wool growth measurement period, a 10 cm square area of wool was removed from both sides of the sheep. After four weeks the same area was reclipped and the wool retained for scouring at the end of the trial.
(§5) The sheep then had protozoa introduced back into their rumen and were allowed to adjust for three weeks. Similarly, during the second four week period, the wool was clipped from the same patch area. The wool harvested during the two four week trial periods was then scoured of wool wax and extraneous material and weighed.

[4] = Effect of defaunation compounds on feed intake of sheep; format: in vivo; conditions: after dosing vs pre-dosing intake
Method: Sheep were allowed a minimum of three weeks to adapt to their ration of 900 g of oaten chaff and 100 g of Lucerne chaff. The pre-dosing level of intake for each animal was established from the mean of five days intake immediately prior to dosing. Any effects of administering the compound on feed intake was then determined by measuring the level of feed intake after dosing.
The criteria of classifying the effect on food intake are shown below.
Poor--greater than 50% reduction in feed intake during the first week after dosing.
Fair--greater than 50% reduction in feed intake on the day following dosing but less then 50% reduction one week after dosing.
OK--transient drop in feed intake which is less than 50% on the day after dosing.
Good--No reduction in feed intake following dosing.

Sheep test: feed intake = format: in vivo
Method: as §1, §2

[5] = Wool growth in defaunated sheep; format: in vivo; conditions: sheep, 167 mg/kg
Method: as §3, §4, §5

rumen bacteria [6] = assay: Sheep test: bacterial gas production; format: in vivo
Method: as §1, §2

rumen ciliate protozoa [7] = assay: Protozoal reduction in sheep; format: in vivo; parameters: concentration or dose not given beside the values; conditions: one week after dosing, relative to predosing numbers
Method: Defaunation compositions were prepared according to the method of Example 1.
Prior to dosing of the compound, a sample of rumen liquor (200 ml) was withdrawn to establish basal numbers of protozoa.
The sample was collected using a stomach tube, inserted into the rumen via a rumen cannula (fistulated animals) or per esophagus (intact animals). After straining the sample was well mixed using a magnetic stirrer and a 0.5 ml sample was withdrawn and added to 49.5 ml of a crystal violet stain. Protozoa were counted using a microscope and a Hawksley counting chamber.
One week after administering the compound, another rumen liquor sample was collected (as described above) and examined for the presence of protozoa. Where rumen ciliate protozoa were undetectable, a reduction or inhibition value of 100% was recorded. In general, most compounds expressed a strong inhibitory effect on protozoal populations.

rumen bacteria [8] = assay: Bacterial viability in sheep after administering defaunation compounds; format: in vivo; conditions: gas production one week after dosing vs pre-dosing
Method: In order to establish what effect the compounds had on the viability of rumen bacteria, a sample of rumen liquor was collected prior to dosing of the compound. The sample was withdrawn under vacuum using a pre-warmed tube inserted into the rumen through a rumen cannula. The sample was collected in a pre-warmed (39° C.) flask, gassed with carbon dioxide and covered. Two-pre-warmed 30 ml centrifuge tubes were then filled with well mixed rumen liquor and centrifuged at 2000 rpm for 5 minutes. Half the volume of each tube was then poured into another pre-warmed tube without disturbing the sediment. Three lots of 10 ml of this rumen liquor were then pipetted into 15 ml tubes which contained 10 μL of urea solution (40% w/v and 300 μL of glucose solution (50% w/v). The urea and glucose acted as substrate for the bacteria. The tubes were then gassed with carbon dioxide, stoppered and placed in a water bath at 39° C. After 10 minutes a 5 ml glass syringe was secured into the stoppers (through which a hypodermic needle had been inserted) and the gas collected for five hours and recorded.
This bacterial viability measure was then repeated one week after dosing with each of the compounds referred to in Table 1. Defaunation compositions were prepared according to the method of Example 1. The amount of gas produced was then compared with the pre-dosing level. The criterion for classifying post-dosing bacterial viability is shown below:
Poor--reduction in post-dosing gas production relative to pre-dosing levels.
OK--post-dosing gas production the same as pre-dosing levels.
Good--increase in post-dosing gas production relative to pre-dosing levels.

rumen bacteria [9] = assay: In vitro bacterial gas inhibition; format: cell-based; conditions: at the concentration known to kill protozoa
Method: Compounds of Table 1 were also tested for toxicity bacteria. This involved removing protozoa from rumen liquor by centrifugation at 2,000 g for 5 minutes and collecting the bacterial rich supernatant. Nitrogen and energy substrate was added to the bacterial preparation which was then dispensed in triplicate 10 ml volumes over the same range of compound concentrations (50, 150, 250 and 500 ppm.) referred to in Example 2. Control tubes were placed after every second compound to enable the inhibition of gas resulting from the compound to be assessed. […] It can be seen that these compounds are selective in their mode of action, in that they are more toxic to protozoa than bacteria.

mice = assay: Mouse safety assessment; format: in vivo; conditions: oral gavage, 830, 415 and 217 mg/kg, observed for 2 days
Method: Compounds of Table 1 chosen for testing in sheep were first tested in mice for signs of toxicity. Because sheep are approximately 5 times more sensitive than mice to compounds dosed orally, the dose rates applied to mice were 5 times greater than the target dose rate of 500 ppm. in rumen liquor (83 mg/kg live weight) used for sheep. Each compound was screened at three different dose levels, high (830 mg/kg), medium (415 mg/kg) and low (217 mg/kg).
252 mg of compound was used for dilution into a high medium and low dose rate. 252 mg of compound was mixed with 3 ml of G1284 solution (4% w/v ethoxylated castor oil and 0.05% w/v simethicone), to form the high dose composition. The medium dose composition was formed by diluting 1.5 ml of the high dose with 1.5 ml of G1284 solution. The low dose composition was formed by diluting 1.5 ml of the medium dose with 1.5 ml of G1284 solution. Before the high dose could be diluted it was first manually ball milled in an effort to produce a fine suspension of the compound.
All mice were weighed before dosing to calculate the appropriate dose rate. The calculation for dose rate was: [formula]
Each mouse was dosed using the Gavage method. With this method the mouse is dosed orally by way of an angled hypodermic needle (18 g) with a smooth spherical end. It is gently placed down the esophagus. All care must be taken not to force the needle and injure the esophagus or dose into the lungs.
Observations were made at 10, 30, 60 and 120 minutes after dosing, then every 1 or 2 hours for the first 6 hours.
Mice were usually observed for 2 days.
Typically, few compounds fell within the poor classification. The majority of compounds tested were either in the fair or good classification.

In the case of `Cc1ccc(Nc2nc(Cl)nc(Cl)n2)c(C)c1` [Compound 30, 2,4 dichloro-6-(2,4-dimethylanilino)-s-triazine], the “Protozoal Nos.” value (protozoa [1]; 1 week after 167 mg/kg) is reported as 0 per mL × 10^3, the “Protozoal Nos.” value (protozoa [1]; 3 weeks after 167 mg/kg) is reported as 0 per mL × 10^3 and the “Protozoal Nos.” value (protozoa [1]; pre-dose (baseline)) is reported as 346 per mL × 10^3. For the same compound, the “Conc Required to Kill all Protozoa” value (rumen ciliate protozoa [2]) was 150 ppm, the “Prot. Number” value (protozoa [3]) was 0 per mL × 10^3 and the “Feed Intake” value [4] was “Okay (transient drop, less than 50% at day 2)”. The “Feed Intake” value (Sheep test: feed intake; 1 week after 167 mg/kg) was 625 g/day, the “Feed Intake” value (Sheep test: feed intake; 3 weeks after 167 mg/kg) was 740 g/day and the “Feed Intake” value (Sheep test: feed intake; pre-dose (baseline)) was 887 g/day. The “Response To Defaun” value ([5]; clean wool growth defaunated vs refaunated) was 14.6, the “Clean Wool Growth” value ([5]; defaunated period, 4 weeks, per midside patch) was 2.830 g and the Bacterial gas production (rumen bacteria [6]; 1 week after 167 mg/kg) was 1.9 M1 per 5 hr. For the same compound, the Bacterial gas production (rumen bacteria [6]; 3 weeks after 167 mg/kg) was 4.6 M1 per 5 hr, the Bacterial gas production (rumen bacteria [6]; pre-dose (baseline)) was 4.4 M1 per 5 hr and the “Protozoal Reduction” value (rumen ciliate protozoa [7]) was 100%. For the same compound, the “Bacterial Viability” value (rumen bacteria [8]) was “Good” and the “Bact. Gas Inhibition at the conc. required to kill protozoa” value (“Bact. Gas Inhibition” for short) (rumen bacteria [9]) was 33.
In the case of `Cc1ccccc1Nc1nc(Cl)nc(Cl)n1` [Compound 8], the “Conc Required to Kill all Protozoa” value (rumen ciliate protozoa [2]) is reported as 250 ppm, the “Feed Intake” value [4] is reported as “Okay (transient drop, less than 50% at day 2)” and the “Mouse Safety Assessment” value (mice) is reported as “Good”. For the same compound, the “Protozoal Reduction” value (rumen ciliate protozoa [7]) was 96%, the “Bacterial Viability” value (rumen bacteria [8]) was “Okay” and the “Bact. Gas Inhibition” value (rumen bacteria [9]) was 43.
In the case of `COc1ccc(Nc2nc(Cl)nc(Cl)n2)cc1OC` [Compound 17], the “Conc Required to Kill all Protozoa” value (rumen ciliate protozoa [2]) is reported as 250 ppm, the “Feed Intake” value [4] is reported as “Fair” and the “Mouse Safety Assessment” value (mice) is reported as “Good”. The “Protozoal Reduction” value (rumen ciliate protozoa [7]) was 98%, the “Bacterial Viability” value (rumen bacteria [8]) was “Okay” and the “Bact. Gas Inhibition” value (rumen bacteria [9]) was 43.
For `Clc1nc(Cl)nc(Nc2cccc(I)c2)n1` [Compound 22], the “Conc Required to Kill all Protozoa” value (rumen ciliate protozoa [2]) was 150 ppm, the “Feed Intake” value [4] was “Good” and the “Mouse Safety Assessment” value (mice) was “Fair (>2 mice sick)”. For the same compound, the “Protozoal Reduction” value (rumen ciliate protozoa [7]) was 100%, the “Bacterial Viability” value (rumen bacteria [8]) was “Okay” and the “Bact. Gas Inhibition” value (rumen bacteria [9]) was 75.
In the case of `CSc1ccc(Nc2nc(Cl)nc(Cl)n2)cc1` [Compound 18], the “Conc Required to Kill all Protozoa” value (rumen ciliate protozoa [2]) is reported as 150 ppm, the “Feed Intake” value [4] is reported as “Okay (transient drop, less than 50% at day 2)” and the “Mouse Safety Assessment” value (mice) is reported as “Fair (>2 mice sick)”. For the same compound, the “Protozoal Reduction” value (rumen ciliate protozoa [7]) was 100%, the “Bacterial Viability” value (rumen bacteria [8]) was “Okay” and the “Bact. Gas Inhibition” value (rumen bacteria [9]) was 53.
For `COc1cccc(Nc2nc(Cl)nc(Cl)n2)c1` [Compound 23], the “Conc Required to Kill all Protozoa” value (rumen ciliate protozoa [2]) was 150 ppm, the “Feed Intake” value [4] was “Good” and the “Mouse Safety Assessment” value (mice) was “Fair (>2 mice sick)”. The “Protozoal Reduction” value (rumen ciliate protozoa [7]) was 79%, the “Bacterial Viability” value (rumen bacteria [8]) was “Good” and the “Bact. Gas Inhibition” value (rumen bacteria [9]) was 50.
In the case of `Clc1nc(Cl)nc(Nc2ccc(Cl)c(Cl)c2)n1` [Compound 7], the “Conc Required to Kill all Protozoa” value (rumen ciliate protozoa [2]) is reported as 250 ppm, the “Feed Intake” value [4] is reported as “Poor (greater than 50% reduction between day 2 to day 8)” and the “Mouse Safety Assessment” value (mice) is reported as “Fair (>2 mice sick)”. The “Protozoal Reduction” value (rumen ciliate protozoa [7]) was 100%, the “Bacterial Viability” value (rumen bacteria [8]) was “Poor” and the “Bact. Gas Inhibition” value (rumen bacteria [9]) was 30.
For `Clc1nc(Cl)nc(Nc2ccc(I)cc2)n1` [Compound 11], the “Conc Required to Kill all Protozoa” value (rumen ciliate protozoa [2]) was 250 ppm, the “Feed Intake” value [4] was “Good” and the “Mouse Safety Assessment” value (mice) was “Fair (>2 mice sick)”. For the same compound, the “Protozoal Reduction” value (rumen ciliate protozoa [7]) was 84%, the “Bacterial Viability” value (rumen bacteria [8]) was “Okay” and the “Bact. Gas Inhibition” value (rumen bacteria [9]) was 71.
